Experimental data: patent US5268386A, “Certain 3,4-dihydro 4-oxospiro [2H-1 benzopyrans] useful for treating hyperuricemia” (Shionogi & Co., Ltd., priority 1989, dated 1993)
pIC50: −log10 of the molar value.

Each molecule was assayed against T1, xanthine oxidase (milk xanthine oxidase) (Bos taurus, UniProt P80457) (assay: Evaluation of xanthine oxidase inhibition activity). Details: phosphate buffer pH=8, absorbance at 293 nm, 10 minutes, read-out: IC50 (50% inhibition rate).
T1 construct: purchased Boelinger Manheim; host or cells: milk
Format: biochemical
Protocol: A mixture of 0.05M phosphate buffer (pH=8, 2 ml), 5.0×10^-4 M xanthine solution (0.5 ml), and an aqueous solution of a test compound (0.3 ml) was charged in a cell for the spectrophotometer. An aqueous solution of xanthine oxidase (200 times dilution, Boelinger Manheim, milk xanthine oxidase) (0.2 ml) was added to the mixture. The absorbance at 293 nm was measured before, and 10 minutes after, the addition of xanthine. The increase in the two measurements is attributable to the amount of synthesized uric acid. Control experiment was carried out using water instead of the test compound solution.

T1 sequence (P80457 whole entry): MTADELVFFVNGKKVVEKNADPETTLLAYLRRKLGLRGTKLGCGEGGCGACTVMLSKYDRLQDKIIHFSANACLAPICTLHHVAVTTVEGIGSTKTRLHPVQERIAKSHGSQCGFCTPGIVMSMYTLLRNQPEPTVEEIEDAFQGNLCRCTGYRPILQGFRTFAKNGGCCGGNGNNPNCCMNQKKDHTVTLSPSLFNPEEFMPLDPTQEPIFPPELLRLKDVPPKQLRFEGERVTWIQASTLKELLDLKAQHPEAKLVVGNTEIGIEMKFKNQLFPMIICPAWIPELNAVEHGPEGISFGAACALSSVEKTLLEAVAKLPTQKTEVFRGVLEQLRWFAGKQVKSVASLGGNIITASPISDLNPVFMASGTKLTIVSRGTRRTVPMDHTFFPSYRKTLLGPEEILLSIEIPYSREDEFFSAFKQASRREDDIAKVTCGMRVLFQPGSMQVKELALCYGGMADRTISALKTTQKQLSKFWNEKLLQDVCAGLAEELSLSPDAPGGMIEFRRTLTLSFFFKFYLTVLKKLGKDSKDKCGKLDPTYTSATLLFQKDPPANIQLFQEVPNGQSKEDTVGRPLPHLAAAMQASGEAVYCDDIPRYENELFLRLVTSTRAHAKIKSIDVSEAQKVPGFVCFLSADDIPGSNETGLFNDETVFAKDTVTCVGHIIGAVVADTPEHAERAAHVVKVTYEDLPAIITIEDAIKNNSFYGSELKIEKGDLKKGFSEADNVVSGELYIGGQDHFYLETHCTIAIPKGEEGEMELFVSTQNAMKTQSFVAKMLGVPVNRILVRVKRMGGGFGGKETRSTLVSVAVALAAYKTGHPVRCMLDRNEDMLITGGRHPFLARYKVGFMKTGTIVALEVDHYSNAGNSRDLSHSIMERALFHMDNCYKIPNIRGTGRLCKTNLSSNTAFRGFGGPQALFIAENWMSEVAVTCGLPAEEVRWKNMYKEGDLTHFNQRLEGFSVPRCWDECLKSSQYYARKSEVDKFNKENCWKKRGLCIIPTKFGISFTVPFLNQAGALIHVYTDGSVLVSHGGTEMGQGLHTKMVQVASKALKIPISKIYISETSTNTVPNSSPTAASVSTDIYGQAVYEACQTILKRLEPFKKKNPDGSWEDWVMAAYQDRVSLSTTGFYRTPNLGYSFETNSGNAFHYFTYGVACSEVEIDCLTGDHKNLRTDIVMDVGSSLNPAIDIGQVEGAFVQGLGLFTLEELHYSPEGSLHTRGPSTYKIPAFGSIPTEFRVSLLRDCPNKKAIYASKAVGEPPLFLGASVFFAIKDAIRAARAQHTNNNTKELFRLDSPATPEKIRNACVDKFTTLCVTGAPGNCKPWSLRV

SMILES	pIC50
COc1cc(OCC(=O)O)cc2c1C(=O)CC1(CCCCC1)O2 [Example 21, {(5-Methoxy-3,4-dihydro-4-oxospiro[2H-1-benzopyran-2,1'-cyclohexan]-7-yl)oxy}acetic acid]	4.19

Each molecule was assayed on uric acid clearance (assay: Accelerated uric acid clearance in rats caused by administration of compound (I)). Details: dose 10 mg/kg intraperitoneal; male rats; mean of four measurements minus control value.
Format: in vivo
Excerpt: Accelerated uric acid clearance in rats caused by administration of compound (I).
Nine-week-old male rats were employed for the test. As a pre-treatment for measuring uric acid clearance and inulin clearance, each animal was anesthetized with pentobarbital sodium, and canulae were placed into the right femoral artery (for blood collection), left femoral vein (for drug infusion), and urinary bladder (for urine collection) of each animal. 60% Urethane was subcutaneously administered to each animal at a dose of 2 ml/kg body weight and then 1.7% potassium oxonate/1.5% inulin/4% mannitol/0.9% saline solution was intravenously administered. After that, 0.5% pottasium oxonate/4% mannitol/1.5% inulin/0.9% saline was infused to each animal at a flow rate of 0.05 ml per minute on a hot plate kept at 30° C. Thirty minutes later, 0.9% saline was intraperitonealy administered at 4 ml/kg body weight. After the equilibrium for another 30 minutes, arterial blood (0.2 ml each) samples were collected 6 times at every 20 minute interval and five 20-minute urine samples were collected. Immediately after the collection of every blood sample, the serum was separated therefrom, and the serum samples and the urine samples were stored in a refrigerator.
Immediately after the first collection of the urine sample, the test compound suspended in 1% gum arabic was intraperitoneally administered at 2 ml/kg body weight.
Uric acid both in the serum and in the urine was quantitatively analyzed by the method of Yonetani et al's. [Yonetani, Y.; Ishii, M.; Iwaki, K., Japanese J. Pharmacology 30, 829-840 (1980).] Inulin was also done substantially by the method of Vurek's and Pegram's [Vurek, G G., Pegram, S.E., Anal.Biochem., 16, 409-419 (1966}]. In order to analyze uric acid, 0.2 ml of diluted solution of deproteinized serum or urine was admixed with 2.5 ml of 0.4% dimedon/orthphosphoric acid solution and the resulting mixture was heated in a hot bath for 5 minutes. The mixture was then cooled in ice-cold water and the fluorescence was measured at 400 nm in the excitation wave length at 360 nm. Control experiments were carried out using an equivalent amount of positive control compounds, ([5-chloro-3-(2-methylphenyl)-4-oxo-4H-1-benzopyran-7-yl] oxy)acetic acid and benzbromarone.
a) Increment of urinary uric acid was calculated by subtracting the control value from the mean value of four measurements after the administration of test compound.
b) Increment of fractional excretion of uric acid [Uric acid clearance/inulin clearance (i.e., glomerular filtration rate)] was calculated by subtracting the control value from the mean value of four measurements after the administration of test compound.

SMILES	ΔUuaV (increment of urinary uric acid)
O=C(O)COc1cc(Cl)c2c(c1Cl)OC1(CCCCC1)CC2=O [Example 11]	0.022 mg/kg-min
COc1cc(OCC(=O)O)cc2c1C(=O)CC1(CCCCC1)O2 [Example 21, {(5-Methoxy-3,4-dihydro-4-oxospiro[2H-1-benzopyran-2,1'-cyclohexan]-7-yl)oxy}acetic acid]	0.046 mg/kg-min
CCOc1cc(OCC(=O)O)cc2c1C(=O)CC1(CCCCC1)O2 [Example 22]	0.029 mg/kg-min
O=C(O)COc1cc(OCc2ccccc2)c2c(c1)OC1(CCCCC1)CC2=O [Example 23]	0.051 mg/kg-min
CC(C)Oc1cc(OCC(=O)O)cc2c1C(=O)CC1(CCCCC1)O2 [Example 24]	0.024 mg/kg-min
C=CCOc1cc(OCC(=O)O)cc2c1C(=O)CC1(CCCCC1)O2 [Example 25]	0.043 mg/kg-min
COc1cc(OCC(=O)O)cc2c1C(=O)C(C)C1(CCCCC1)O2 (stereo not shown) [Example 30]	0.036 mg/kg-min
COc1c(OCC(=O)O)ccc2c1OC1(CCCCC1)CC2=O [Example 34]	0.040 mg/kg-min
O=C(O)COc1cc(O)c2c(c1)SC1(CCCCC1)CC2=O [Example 49, 2-{(5-Hydroxy-3,4-dihydro-4-oxospiro[2H-1-benzothiine-2,1'-cyclohexan]-7-yl)oxy}acetic acid]	0.082 mg/kg-min
COc1cc(OCC(=O)O)cc2c1C1(CC3(CCCCC3)O2)SCCS1 [Example 54, {(5-Methoxy-3,4-dihydrodispiro[2H-1-benzopyran-2,1'-cyclohexan-4,2"-[1,3]dithiolan]-7-yl)oxy}acetic acid]	0.039 mg/kg-min

Same assay, conditions: dose 25 mg/kg intraperitoneal; male rats; mean of four measurements minus control value

SMILES	ΔUuaV (increment of urinary uric acid)
COc1cc(OCC(=O)OCn2ncc3c(=O)[nH]cnc32)cc2c1C(=O)CC1(CCCCC1)O2 [Example 61]	-0.006 mg/kg-min

Same assay, conditions: dose 50 mg/kg intraperitoneal; male rats; mean of four measurements minus control value

SMILES	ΔUuaV (increment of urinary uric acid)
COc1cc(OCC(=O)O)cc2c1C(=O)CC(C)(C)O2 [Example 33]	0.047 mg/kg-min
